From US10184115B2, “Mutated cellobiose dehydrogenase with increased substrate specificity” (DIRECTSENS GMBH, priority 2012, dated 2019)

Assays:
Assay type in all cases: biochemical
[1] = biological target: Myriococcum thermophilum cellobiose dehydrogenase (CDH, SEQ ID NO: 1) variant C312Y/W316R (Thermothelomyces myriococcoides, UniProt A9XK88, C312Y/W316R); settings: apparent, DCIP assay, pH 4.5, 30° C.; for kcat: ~ values only estimated by non linear regression
Protocol: (§1) Enzyme activity was assayed at 30° C. using either the DCIP (Karapetyan et al., 2005 Journal of Biotechnology 121: 34-48) or cytochrome c (Canevascini et al., 1991, European Journal of Biochemistry 198: 43-52) as electron acceptor. […] Stock solutions of carbohydrates used for kinetic measurements were prepared in the respective buffer and allowed to stand overnight for mutarotation, while stock solutions of electron acceptors were prepared in water and immediately used. The reaction stoichiometry is 1 for the two-electron acceptor DCIP (1 mole of DCIP reduced per mole of carbohydrate oxidized), but 2 for the one-electron acceptor cytochrome c. Kinetic constants were calculated by fitting the observed data to the Henri-Michaelis-Menten equation or to the adapted model for substrate inhibition using nonlinear least-squares regression and the program SigmaPlot (Systat Software, San Jose, Calif., USA).
(§2) The M. thermophilum CDH gene (EF492051, SEQ ID NO: 2) was codon-optimized for expression in Pichia pastoris according to the method described in Abad et al., 2010 and WO2010/097462 A1 (SEQ ID NO: 13) and synthesized by Gen-script (Piscataway, N.J., USA). cDNA encoding for M. thermophilum CDH was excised from the plasmid pMTSopt using EcoRI and NotI and cloned into the expression vector pPicZA along with its native signal sequence. Plasmid pCT1 was used as template for the amplification of the C. thermophilus CDH cDNA. Restriction enzymes BstBI and XbaI were used for cloning into the expression vector pPicZB along with its native signal sequence. Mutants of M. thermophilum CDH: C312Y, N313S, W316L, W316R, R622N, N721D, C312Y/W316L, C312Y/W316R and C. thermophiles CDH C310Y were prepared by a two step mutagenesis approach using PCR and DpnI (Li et al., 2002). […] SacI linearized expression plasmids were transformed into electrocompetent X-33 cells and transformants were selected on YPD Zeocin plates ([…]).
(§3) Recombinant wild-type CDH as well as variants were produced in 1 L baffled flasks. Precultures were grown overnight in 30 mL of YPD medium at 30° C. and 120 rpm. After approximately 18 hours the precultures were transferred into 1 L baffled flasks containing 200 mL BMGY medium without methanol. Induction with methanol was started immediately using a multichannel peristaltic pump (Minipuls Evolution, Gilson, Middleton, Wis., USA). Each flask was supplied eight times a day with methanol yielding a total concentration of 2% (v/v) methanol per day. Increase in activity was monitored using the DCIP and the cytochrome c enzyme assays. Cultivation was stopped at day five of methanol induction, cells removed by centrifugation (4000 rpm, 20 min) and the supernatant set to a final ammonium sulfate concentration of 20%.
(§4) The sample was loaded on a 20 mL PHE Sepharose FF column (HR26/20) equilibrated with 50 mM Na-acetate buffer pH 5.5 containing 20% ammonium sulfate. Proteins were eluted by increasing the concentration of the elution buffer (50 mM Na-acetate buffer pH 5.5) from 0 to 100% in 5 column volumes and fractions containing CDH activity were pooled. After diafiltration with a polyethersulfone flat-stack cross flow module with a cut-off of 10 kDa (Viva Flow 50, Sartorius, Göttingen, Germany) until conductivity of 5 mS cm^−1 in 20 mM Na-acetate pH 5.5 the samples were loaded on a 20 mL Q-Source column (HR26/20) equilibrated with a 20 mM Na-acetate buffer pH 5.5. CDH was eluted by increasing the concentration of the elution buffer (50 mM Na-acetate buffer pH 5.5 containing 0.5 M NaCl) from 0 to 100% in 50 column volumes. Fractions were tested for CDH activity and pooled according to the highest Reinheitszahl (RZ, calculated from the absorbance ratio 420 nm/280 nm). Purified enzymes were concentrated and diafiltered in 50 mM citrate buffer, pH 5.5, aliquoted and kept at 4° C. for further use.

[2] = biological target: Myriococcum thermophilum cellobiose dehydrogenase (CDH, SEQ ID NO: 1) variant C312Y (Thermothelomyces myriococcoides, UniProt A9XK88, C312Y); settings: apparent, DCIP assay, pH 4.5, 30° C.
Protocol: as §1, §2, §3, §4

[3] = biological target: Myriococcum thermophilum cellobiose dehydrogenase (CDH, SEQ ID NO: 1) variant C312Y/W316L (Thermothelomyces myriococcoides, UniProt A9XK88, C312Y/W316L); settings: apparent, DCIP assay, pH 4.5, 30° C.; for kcat: ~ values only estimated by non linear regression
Protocol: as §1, §2, §3, §4

[4] = biological target: T1, Corynascus thermophilus CDH flavodehydrogenase domain, recombinant wild type (wtDH), amino acids 249-787 of SEQ ID NO: 7 (Thermothelomyces fergusii, UniProt E7D6B9); assay: Steady-state kinetics, DCIP assay: C. thermophilus flavodehydrogenase domain wt; settings: apparent, pH 5.5, 30° C.
T1 sequence (E7D6B9 249-787): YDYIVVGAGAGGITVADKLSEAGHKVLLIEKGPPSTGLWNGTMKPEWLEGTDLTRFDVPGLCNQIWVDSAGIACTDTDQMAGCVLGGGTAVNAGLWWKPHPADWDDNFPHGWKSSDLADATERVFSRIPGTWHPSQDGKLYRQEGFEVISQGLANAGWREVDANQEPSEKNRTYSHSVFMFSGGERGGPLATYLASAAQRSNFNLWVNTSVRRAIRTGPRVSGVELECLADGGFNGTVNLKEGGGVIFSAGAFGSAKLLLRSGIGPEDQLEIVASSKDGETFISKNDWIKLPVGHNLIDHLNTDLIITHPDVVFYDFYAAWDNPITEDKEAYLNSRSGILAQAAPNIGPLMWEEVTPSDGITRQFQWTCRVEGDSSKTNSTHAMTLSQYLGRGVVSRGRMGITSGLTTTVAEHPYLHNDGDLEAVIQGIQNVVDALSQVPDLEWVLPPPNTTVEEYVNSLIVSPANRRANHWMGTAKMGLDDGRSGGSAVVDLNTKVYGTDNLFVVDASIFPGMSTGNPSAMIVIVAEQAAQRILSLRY
Protocol: as §1
The construct was confirmed by sequencing.
as §3
as §4, with “Purified enzymes were concentrated and diafiltered in 50 mM citrate buffer, pH 5.5, aliquoted and kept at 4° C. for further use.” left out

Myriococcum thermophilum cellobiose dehydrogenase (CDH, SEQ ID NO: 1) variant C312Y, sequence (A9XK88 entry or part of it C312Y): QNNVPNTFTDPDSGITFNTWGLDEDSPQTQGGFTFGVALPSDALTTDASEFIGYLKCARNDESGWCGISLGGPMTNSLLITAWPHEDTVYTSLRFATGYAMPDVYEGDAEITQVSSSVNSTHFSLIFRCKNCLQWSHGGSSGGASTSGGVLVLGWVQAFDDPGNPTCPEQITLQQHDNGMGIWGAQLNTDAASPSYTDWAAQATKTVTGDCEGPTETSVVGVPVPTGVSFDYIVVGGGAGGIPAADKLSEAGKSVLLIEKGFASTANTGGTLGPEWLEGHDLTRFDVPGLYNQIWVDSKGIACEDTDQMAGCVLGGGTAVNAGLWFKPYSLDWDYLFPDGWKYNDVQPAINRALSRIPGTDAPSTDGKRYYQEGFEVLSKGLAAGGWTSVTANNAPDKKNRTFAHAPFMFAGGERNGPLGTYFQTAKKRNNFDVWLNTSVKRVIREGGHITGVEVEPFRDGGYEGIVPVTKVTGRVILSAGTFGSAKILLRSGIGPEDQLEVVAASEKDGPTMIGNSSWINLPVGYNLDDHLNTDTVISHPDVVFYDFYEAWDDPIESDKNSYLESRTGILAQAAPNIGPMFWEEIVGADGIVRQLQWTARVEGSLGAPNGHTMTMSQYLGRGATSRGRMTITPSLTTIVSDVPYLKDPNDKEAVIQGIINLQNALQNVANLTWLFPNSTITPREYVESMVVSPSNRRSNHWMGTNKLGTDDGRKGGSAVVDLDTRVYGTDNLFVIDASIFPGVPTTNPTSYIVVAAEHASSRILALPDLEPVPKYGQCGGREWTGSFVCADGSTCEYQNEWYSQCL
Myriococcum thermophilum cellobiose dehydrogenase (CDH, SEQ ID NO: 1) variant C312Y/W316R, sequence (A9XK88 entry or part of it C312Y/W316R): as the sequence (A9XK88 entry or part of it C312Y) above, with W295R counted along it
Myriococcum thermophilum cellobiose dehydrogenase (CDH, SEQ ID NO: 1) variant C312Y/W316L, sequence (A9XK88 entry or part of it C312Y/W316L): as the sequence (A9XK88 entry or part of it C312Y) above, with W295L counted along it

| Compound | kcat/KM [1] [M⁻¹ s⁻¹] | kcat [1] [s⁻¹] | kcat [2] [s⁻¹] | kcat/KM [2] [M⁻¹ s⁻¹] | kcat/KM [3] [M⁻¹ s⁻¹] | kcat [3] [s⁻¹] | kcat [4] [s⁻¹] | kcat/KM [4] [M⁻¹ s⁻¹] |
| --- | --- | --- | --- | --- | --- | --- | --- | --- |
| OC[C@H]1O[C@H](O[C@H]2[C@H](O)[C@@H](O)C(O)O[C@@H]2CO)[C@H](O)[C@@H](O)[C@@H]1O (stereo partly shown) [Maltose, maltose] | 0.17 | ~2.7 | 0.48 | 3.5 | 0.62 | ~0.92 | 0.86 | 296 |
| OC[C@H]1OC(O)[C@H](O)[C@@H](O)[C@@H]1O (stereo partly shown) [Glucose, glucose] | 6.2 | 4.3 | 9.6 | 50 | 13 | 6.4 | 8.8 | 79.1 |
